Test results: patent US9346801B2, “Substituted 7-oxo-pyrido[2,3-d]pyrimidines and methods of use” (AMGEN INC., priority 2013, dated 2016)

Key:
Format in all cases: cell-based
[1] = target: T1, T790M mutant EGFR phosphorylation in H1975 (T790M/L858R) NSCLC cells (Homo sapiens, UniProt P00533, L858R/T790M); assay: Detection of pEGFR on NSCLC cell lines (MSD multiplex), H1975; conditions: serum starved, 60 min compound
T1 construct: endogenous in cells; host or cells: H1975 NSCLC cells
Procedure: (§1) The effects of compounds on the phosphorylation of wild-type, T790M mutant, and Exon19 deletion (A746-750) EGFR were monitored using Mesoscalc™ multiplex assays (MSD), in which levels of phosphorylated EGFR protein were determined using total […] levels as a control. H1975 (T790M/L858R), HCC827 (Δ746-750) and A549 (wild-type EGFR) NSCLC cells were plated on 6-well tissue culture plates, serum starved for overnight and treated with 9 concentrations of compound starting at 2 μM (5-fold dilutions) for 60 min. Wild-type A549 cells were challenged with 100 ng/ml EGF for 15 min before collection. Cells were lysed according to manufacturer's instructions and lysates processed for analysis in the […]) multiplex plate reader.

[2] = system: H1975 (T790M/L858R) NSCLC cells; assay: Inhibition of proliferation of NSCLC cell lines, H1975; conditions: Cell Titer Glow; for IC50: Homo sapiens, NCI-H1975, 72 h, read-out: H1975 cell killing IC50; for H1975 cell killing IC50: 72 h
Procedure: (§2) NSCLC cell lines H1975 (T790M/L858R), HCC827 (Δ746-750) and A549 (wild-type) were seeded in 96-well tissue culture plates (Corning, Lowell, Mass.) at 5,000 cells/well (H1975) and 4,000 cells/well (HCC827 and A549) in 95 μL of cell growth media overnight. Compounds starting at 10 mM concentration and diluted 8 times (4-fold dilutions) in DMSO were diluted 50 fold in RPM1 then 5 μL was added to cells. After 72 h, viable cell signal was quantified using Cell Titer Glow (Promega, Madison, Wis.) and a SpectraMax M5 plate reader (Molecular Devices, Sunnyvale, Calif.) per manufacturer's instructions. Final DMSO concentration in test and control wells was 0.1%. No DSMO effect was noted on cell growth.

[3] = target: T2, Exon19 deletion (Δ746-750) EGFR phosphorylation in HCC827 NSCLC cells (Homo sapiens, UniProt P00533, DEL746-750); assay: Detection of pEGFR on NSCLC cell lines (MSD multiplex), HCC827; conditions: HCC827 (Δ746-750) cells, serum starved, 60 min compound
T2 construct: endogenous in cells; host or cells: HCC827 NSCLC cells
Procedure: as §1

[4] = target: T3, wild-type EGFR phosphorylation in A549 NSCLC cells (Homo sapiens, UniProt P00533); assay: Detection of pEGFR on NSCLC cell lines (MSD multiplex), A549; conditions: 60 min compound, 100 ng/ml EGF for 15 min
T3 construct: Wild-type A549 cells were challenged with 100 ng/ml EGF for 15 min before collection; endogenous in cells; host or cells: A549 NSCLC cells
Procedure: as §1

[5] = system: HCC827 (Δ746-750) NSCLC cells; assay: Inhibition of proliferation of NSCLC cell lines, HCC827; conditions: Homo sapiens, 72 h, Cell Titer Glow, read-out: HCC827 cell killing IC50
Procedure: as §2

T1 sequence (P00533 25-1210 T790M/L858R): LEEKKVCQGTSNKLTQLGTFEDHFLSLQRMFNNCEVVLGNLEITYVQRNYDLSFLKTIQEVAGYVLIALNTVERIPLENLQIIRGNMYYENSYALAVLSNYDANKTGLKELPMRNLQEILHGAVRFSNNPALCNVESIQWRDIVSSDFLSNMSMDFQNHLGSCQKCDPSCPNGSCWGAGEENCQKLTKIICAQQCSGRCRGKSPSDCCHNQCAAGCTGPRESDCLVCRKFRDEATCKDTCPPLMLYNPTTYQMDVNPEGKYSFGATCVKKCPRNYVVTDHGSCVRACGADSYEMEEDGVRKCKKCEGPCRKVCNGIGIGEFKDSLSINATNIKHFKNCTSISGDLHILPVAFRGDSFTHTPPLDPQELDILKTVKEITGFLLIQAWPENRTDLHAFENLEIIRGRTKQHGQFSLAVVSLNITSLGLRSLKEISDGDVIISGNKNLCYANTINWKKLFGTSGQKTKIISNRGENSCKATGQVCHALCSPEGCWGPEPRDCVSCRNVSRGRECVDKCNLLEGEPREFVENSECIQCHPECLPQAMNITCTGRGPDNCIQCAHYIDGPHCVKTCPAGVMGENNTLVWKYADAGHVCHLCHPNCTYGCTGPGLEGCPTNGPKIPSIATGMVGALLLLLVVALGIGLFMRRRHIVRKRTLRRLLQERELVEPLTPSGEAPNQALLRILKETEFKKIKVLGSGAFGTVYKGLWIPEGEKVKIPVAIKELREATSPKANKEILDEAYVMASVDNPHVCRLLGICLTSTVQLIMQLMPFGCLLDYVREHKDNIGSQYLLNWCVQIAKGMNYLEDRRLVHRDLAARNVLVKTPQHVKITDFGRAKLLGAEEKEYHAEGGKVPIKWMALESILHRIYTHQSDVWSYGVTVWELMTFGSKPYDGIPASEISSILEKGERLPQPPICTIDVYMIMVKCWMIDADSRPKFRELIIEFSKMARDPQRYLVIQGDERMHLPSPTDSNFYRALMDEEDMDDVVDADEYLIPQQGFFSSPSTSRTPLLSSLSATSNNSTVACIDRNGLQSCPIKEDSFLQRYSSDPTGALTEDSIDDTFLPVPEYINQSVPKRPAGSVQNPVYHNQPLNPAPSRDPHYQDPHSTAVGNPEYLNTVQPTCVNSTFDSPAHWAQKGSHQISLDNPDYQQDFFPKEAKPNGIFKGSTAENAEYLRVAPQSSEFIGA
T3 sequence (P00533 25-1210): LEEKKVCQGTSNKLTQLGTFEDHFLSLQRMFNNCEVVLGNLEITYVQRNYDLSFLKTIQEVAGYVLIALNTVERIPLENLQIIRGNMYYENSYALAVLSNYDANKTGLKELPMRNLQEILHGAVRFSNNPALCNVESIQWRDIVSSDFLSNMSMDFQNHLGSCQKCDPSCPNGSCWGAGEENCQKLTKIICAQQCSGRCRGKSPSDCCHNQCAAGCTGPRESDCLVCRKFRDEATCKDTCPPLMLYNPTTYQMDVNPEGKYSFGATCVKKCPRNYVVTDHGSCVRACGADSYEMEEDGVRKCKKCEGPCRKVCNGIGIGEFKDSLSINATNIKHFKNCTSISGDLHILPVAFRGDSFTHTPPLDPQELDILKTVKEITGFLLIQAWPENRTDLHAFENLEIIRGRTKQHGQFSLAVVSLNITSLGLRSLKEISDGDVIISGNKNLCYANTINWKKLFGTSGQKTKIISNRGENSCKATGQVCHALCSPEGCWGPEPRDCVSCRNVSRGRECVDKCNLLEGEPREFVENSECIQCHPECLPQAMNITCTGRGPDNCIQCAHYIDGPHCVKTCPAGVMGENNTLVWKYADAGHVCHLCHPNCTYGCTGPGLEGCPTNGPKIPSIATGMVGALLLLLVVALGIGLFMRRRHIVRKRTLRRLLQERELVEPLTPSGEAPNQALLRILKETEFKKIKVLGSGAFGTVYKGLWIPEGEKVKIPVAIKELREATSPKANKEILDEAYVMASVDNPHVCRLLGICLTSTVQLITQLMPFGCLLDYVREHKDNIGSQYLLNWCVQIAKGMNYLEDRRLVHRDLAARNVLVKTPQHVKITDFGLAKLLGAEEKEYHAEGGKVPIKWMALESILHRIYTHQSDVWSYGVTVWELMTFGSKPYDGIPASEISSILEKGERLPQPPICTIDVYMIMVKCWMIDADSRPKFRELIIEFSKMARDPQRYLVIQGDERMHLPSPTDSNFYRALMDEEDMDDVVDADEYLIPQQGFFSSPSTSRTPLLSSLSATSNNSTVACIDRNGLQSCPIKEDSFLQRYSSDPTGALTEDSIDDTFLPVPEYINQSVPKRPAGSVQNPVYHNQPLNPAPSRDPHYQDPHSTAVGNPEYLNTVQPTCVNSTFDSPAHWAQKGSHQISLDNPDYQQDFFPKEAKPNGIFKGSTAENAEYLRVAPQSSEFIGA
T2 sequence (P00533 with tags, fused parts or gaps DEL746-750): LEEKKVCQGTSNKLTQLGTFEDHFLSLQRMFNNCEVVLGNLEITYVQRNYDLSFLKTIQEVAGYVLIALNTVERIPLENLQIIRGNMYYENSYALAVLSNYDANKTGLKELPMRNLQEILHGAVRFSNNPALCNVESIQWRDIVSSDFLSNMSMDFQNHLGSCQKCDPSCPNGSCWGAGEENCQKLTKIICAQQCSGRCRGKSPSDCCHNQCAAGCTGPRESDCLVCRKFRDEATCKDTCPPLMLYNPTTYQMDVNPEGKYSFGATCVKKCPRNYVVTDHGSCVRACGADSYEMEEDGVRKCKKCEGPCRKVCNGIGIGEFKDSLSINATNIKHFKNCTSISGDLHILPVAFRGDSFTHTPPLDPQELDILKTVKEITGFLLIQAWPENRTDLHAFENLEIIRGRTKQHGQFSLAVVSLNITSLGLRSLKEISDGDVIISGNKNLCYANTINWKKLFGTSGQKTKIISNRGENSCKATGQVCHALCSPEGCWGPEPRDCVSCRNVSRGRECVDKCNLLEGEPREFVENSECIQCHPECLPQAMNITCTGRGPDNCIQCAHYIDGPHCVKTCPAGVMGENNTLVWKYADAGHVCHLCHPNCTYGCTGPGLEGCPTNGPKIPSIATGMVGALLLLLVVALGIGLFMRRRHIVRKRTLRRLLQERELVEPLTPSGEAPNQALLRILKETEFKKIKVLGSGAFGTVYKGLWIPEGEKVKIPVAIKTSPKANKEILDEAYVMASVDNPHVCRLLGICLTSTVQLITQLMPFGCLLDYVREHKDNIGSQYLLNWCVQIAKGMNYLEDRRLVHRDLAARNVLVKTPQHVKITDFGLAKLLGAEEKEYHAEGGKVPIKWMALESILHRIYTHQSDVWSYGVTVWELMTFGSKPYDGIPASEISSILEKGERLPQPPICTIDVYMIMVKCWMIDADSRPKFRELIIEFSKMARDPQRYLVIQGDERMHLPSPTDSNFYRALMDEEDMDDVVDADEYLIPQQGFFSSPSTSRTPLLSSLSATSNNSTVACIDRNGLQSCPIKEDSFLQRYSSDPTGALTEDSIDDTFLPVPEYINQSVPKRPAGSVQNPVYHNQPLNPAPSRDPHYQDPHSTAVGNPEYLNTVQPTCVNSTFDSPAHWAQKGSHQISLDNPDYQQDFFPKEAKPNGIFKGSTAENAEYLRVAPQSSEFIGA

Row | SMILES | IC50 [1] | IC50 [2] | IC50 [3] | IC50 [4] | IC50 [5] | H1975 cell killing IC50 [2]
1 | C=CC(=O)Nc1cccc(-n2c(=O)ccc3cnc(Nc4ccc(N5CCN(C)CC5)cc4OC)nc32)c1 [Example 1, N-(3-(2-((2-methoxy-4-(4-methyl-1-piperazinyl)phenyl)amino)-7-oxopyrido[2,3-d]pyrimidin-8(7H)-yl)phenyl)-2-propenamide] | 3.2 nM | 8 nM | 3.4 nM | 76 nM | 4 nM | 
2 | C=CC(=O)Nc1cccc(-n2c(=O)ccc3cnc(Nc4ccc(N5CCOCC5)cc4OC)nc32)c1 [Example 2, N-(3-(2-((2-methoxy-4-(4-morpholinyl)phenyl)amino)-7-oxopyrido[2,3-d]pyrimidin-8(7H)-yl)phenyl)-2-propenamide] |  |  |  |  |  | undefined
3 | C/C=C/C(=O)Nc1cccc(-n2c(=O)ccc3cnc(Nc4ccc(N5CCN(C)CC5)cc4OC)nc32)c1 [Example 3, (2E)-N-(3-(2-((2-methoxy-4-(4-methyl-1-piperazinyl)phenyl)amino)-7-oxopyrido[2,3-d]pyrimidin-8(7H)-yl)phenyl)-2-butenamide] |  | 326 nM |  |  | 126 nM | 
4 | C=CC(=O)Nc1cccc(-n2c(=O)ccc3cnc(Nc4ccc(N5CCN(C)CC5)cc4)nc32)c1 [Example 4, N-(3-(2-((4-(4-methyl-1-piperazinyl)phenyl)amino)-7-oxopyrido[2,3-d]pyrimidin-8(7H)-yl)phenyl)-2-propenamide] |  | 0.7 nM |  |  | 1 nM | 
5 | C=CC(=O)Nc1cccc(-n2c(=O)cc(C)c3cnc(Nc4ccc(N5CCN(C)CC5)cc4OC)nc32)c1 [Example 5] | 2.8 nM | 4 nM | 8 nM | 323 nM | 10 nM | 
6 | C=CC(=O)Nc1cccc(-n2c(=O)c(CC)cc3cnc(Nc4ccc(N5CCN(C)CC5)cc4OC)nc32)c1 [Example 6, N-(3-(6-ethyl-2-((2-methoxy-4-(4-methyl-1-piperazinyl)phenyl)amino)-7-oxopyrido[2,3-d]pyrimidin-8(7H)-yl)phenyl)-2-propenamide] | 4.3 nM | 12 nM |  | 8.2 nM |  | 
7 | C=CC(=O)Nc1cccc(-n2c(=O)cc(C)c3cnc(Nc4ccc(N5CCOCC5)cc4OC)nc32)c1 [Example 7, N-(3-(2-((2-methoxy-4-(4-morpholinyl)phenyl)amino)-5-methyl-7-oxopyrido[2,3-d]pyrimidin-8(7H)-yl)phenyl)-2-propenamide] |  |  |  |  | 2.81 nM | undefined
8 | C=CC(=O)Nc1cccc(-n2c(=O)ccc3cnc(Nc4cnc(N5CCN(C)CC5)cc4OC)nc32)c1 [Example 8, N-(3-(2-((4-methoxy-6-(4-methyl-1-piperazinyl)-3-pyridinyl)amino)-7-oxopyrido[2,3-d]pyrimidin-8(7H)-yl)phenyl)-2-propenamide] |  | 92 nM |  |  | 21 nM | 
9 | COc1cc(N2CCN(C)CC2)ccc1Nc1ncc2ccc(=O)n(-c3cccc(NC(=O)/C=C/CN(C)C)c3)c2n1 [Example 9, (2E)-4-(dimethylamino)-N-(3-(2-((2-methoxy-4-(4-methyl-1-piperazinyl)phenyl)amino)-7-oxopyrido[2,3-d]pyrimidin-8(7H)-yl)phenyl)-2-butenamide] |  | 361 nM |  |  | 53 nM | 
10 | C=CC(=O)Nc1ccc(F)c(-n2c(=O)ccc3cnc(Nc4ccc(N5CCN(C)CC5)cc4OC)nc32)c1 [Example 10, N-(4-fluoro-3-(2-((2-methoxy-4-(4-methyl-1-piperazinyl)phenyl)amino)-7-oxopyrido[2,3]pyrimidin-8(7H)-yl)phenyl)-2-propenamide] | 2 nM | 4 nM |  | 84 nM | 4 nM | 
11 | C=CC(=O)Nc1cccc(-n2c(=O)ccc3cnc(Nc4ccc(NC5CN(CCF)C5)cc4OC)nc32)c1 [Example 11, N-(3-(2-((4-((1-(2-fluoroethyl)-3-azetidinyl)amino)-2-methoxyphenyl)amino)-7-oxopyrido[2,3-d]pyrimidin-8(7H)-yl)phenyl)-2-propenamide] | 6 nM | 9.6 nM | 5 nM | 155 nM | 3 nM | 
12 | COc1cc(N2CCN(C)CC2)ccc1Nc1ncc2ccc(=O)n(-c3cccc(NC(=O)CCl)c3)c2n1 [Example 12, 2-chloro-N-(3-(2-((2-methoxy-4-(4-methyl-1-piperazinyl)phenyl)amino)-7-oxopyrido[2,3-d]pyrimidin-8(7H)-yl)phenyl)acetamide] |  | 680 nM |  |  | 18 nM | 
13 | COc1cc(N2CCN(C)CC2)ccc1Nc1ncc2ccc(=O)n(-c3cccc(NC(=O)CCN(C)C)c3)c2n1 [Example 13, 3-(dimethylamino)-N-(3-(2-((2-methoxy-4-(4-methylpiperazin-1-yl)phenyl)amino)-7-oxopyrido[2,3-d]pyrimidin-8(7H)-yl)phenyl)propanamide] |  | 128 nM |  |  | 76 nM | 
14 | C=CC(=O)Nc1cccc(-n2c(=O)ccc3cnc(Nc4ccc(NC5CN(C(C)=O)C5)cc4OC)nc32)c1 [Example 14, N-(3-(2-((4-((1-acetylazetidin-3-yl)amino)-2-methoxyphenyl)amino)-7-oxopyrido[2,3-d]pyrimidin-8(7H)-yl)phenyl)acrylamide] |  | 190 nM |  |  | 24 nM | 
15 | C=CC(=O)Nc1cccc(-n2c(=O)ccc3cnc(Nc4ccc(N5CCN(C)CC5)cc4Cl)nc32)c1 [Example 15, N-(3-(2-((2-chloro-4-(4-methyl-1-piperazinyl)phenyl)amino)-7-oxopyrido[2,3-d]pyrimidin-8(7H)-yl)phenyl)-2-propenamide] |  | 11 nM |  |  | 3.5 nM | 
16 | C=CC(=O)Nc1cccc(-n2c(=O)cc(C)c3cnc(Nc4ccc(NC5CN(CCF)C5)cc4OC)nc32)c1 [Example 16, N-(3-(2-((4-((1-(2-fluoroethyl)-3-azetidinyl)amino)-2-methoxyphenyl)amino)-5-methyl-7-oxopyrido[2,3-d]pyrimidin-8(7H)-yl)phenyl)-2-propenamide] |  | 22 nM |  |  | 18 nM | 
17 | C=CC(=O)Nc1cccc(-n2c(=O)cc(C)c3cnc(Nc4ccc(N5CCN(C)CC5)cc4)nc32)c1 [Example 17, N-(3-(5-methyl-2-((4-(4-methylpiperazin-1-yl)phenyl)amino)-7-oxopyrido[2,3-d]pyrimidin-8(7H)-yl)phenyl)acrylamide] |  | 3.6 nM |  |  | 7.3 nM | 
